Data from ChEMBL document CHEMBL3045592, “Studies of O,O-dimethyl α-(2,4-dichlorophenoxyacetoxy)ethylphosphonate (HW02) as a new herbicide. 1. Synthesis and herbicidal activity of HW02 and analogues as novel inhibitors of pyruvate dehydrogenase complex” (J Agric Food Chem, 2011).

Experiments:
Amaranthus retroflexus [1] = assay: Post-emergence herbicidal activity against Amaranthus retroflexus assessed as growth inhibition at 225 ai g/ha after 20 days by green house test; assay type: functional
Cardamine hirsuta [2] = assay: Post-emergence herbicidal activity against Cardamine hirsuta assessed as growth inhibition at 225 ai g/ha after 20 days by green house test; assay type: functional
Portulaca oleracea = assay: Post-emergence herbicidal activity against Portulaca oleracea assessed as growth inhibition at 450 ai g/ha after 20 days by green house test; assay type: functional
Daucus carota [3] = assay: Post-emergence herbicidal activity against Daucus carota (carrot) assessed as growth inhibition at 450 ai g/ha after 20 days by green house test; assay type: functional
Amaranthus retroflexus [4] = assay: Post-emergence herbicidal activity against Amaranthus retroflexus assessed as growth inhibition at 300 ai g/ha after 20 days by green house test; assay type: functional
[5] = Toxicity against Oryza sativa (rice) assessed as growth inhibition at 600 ai g/ha post-emergent application measured after 20 days by green house crop selectivity test; assay type: organism-based; conditions: in vivo, read-out: GI
[6] = Toxicity against Zea mays Gao you 1 (maize) assessed as growth inhibition at 225 ai g/ha post-emergent application measured after 20 days by green house crop selectivity test; assay type: organism-based; conditions: Gao you 1, zea mays, in vivo, read-out: GI
Xanthium strumarium [7] = assay: Post-emergence herbicidal activity against Xanthium strumarium (cocklebur) assessed as growth inhibition at 75 ai g/ha after 20 days by green house test; assay type: functional
[8] = Toxicity against Oryza sativa (rice) assessed as growth inhibition at 300 ai g/ha post-emergent application measured after 20 days by green house crop selectivity test; assay type: organism-based; conditions: in vivo, read-out: GI
Cardamine hirsuta [9] = assay: Post-emergence herbicidal activity against Cardamine hirsuta assessed as growth inhibition at 18.75 ai g/ha after 20 days by green house test; assay type: functional
Medicago sativa [10] = assay: Post-emergence herbicidal activity against Medicago sativa (alfalfa) assessed as growth inhibition at 450 ai g/ha after 20 days by green house test; assay type: functional
Echinochloa crus-galli = assay: Post-emergence herbicidal activity against Echinochloa crus-galli (barnyard grass) assessed as growth inhibition at 225 ai g/ha after 20 days by green house test; assay type: functional
Eclipta prostrata [11] = assay: Post-emergence herbicidal activity against Eclipta prostrata assessed as growth inhibition at 150 ai g/ha after 20 days by green house test; assay type: functional
Eclipta prostrata [12] = assay: Post-emergence herbicidal activity against Eclipta prostrata assessed as growth inhibition at 225 ai g/ha after 20 days by green house test; assay type: functional
Digitaria sanguinalis = assay: Post-emergence herbicidal activity against Digitaria sanguinalis (hairy crabgrass) assessed as growth inhibition at 225 ai g/ha after 20 days by green house test; assay type: functional
Xanthium strumarium [13] = assay: Post-emergence herbicidal activity against Xanthium strumarium (cocklebur) assessed as growth inhibition at 150 ai g/ha after 20 days by green house test; assay type: functional
Oryza sativa = assay: Inhibition of PDHc in Oryza sativa (rice) shoot mitochondria assessed as decrease in rate of NADH formation using sodium pyruvate as substrate at 100 microg/g preincubated for 25 min before substrate addition measured after 1 min by spectrophotometric assay
Xanthium strumarium [14] = assay: Post-emergence herbicidal activity against Xanthium strumarium (cocklebur) assessed as growth inhibition at 300 ai g/ha after 20 days by green house test; assay type: functional
[15] = system: Brassica rapa subsp. oleifera; assay: Post-emergence herbicidal activity against Brassica rapa subsp. oleifera Si Yue Man assessed as growth inhibition at 37.5 ai g/ha after 20 days by green house test; assay type: functional
Xanthium strumarium [16] = assay: Post-emergence herbicidal activity against Xanthium strumarium (cocklebur) assessed as growth inhibition at 18.75 ai g/ha after 20 days by green house test; assay type: functional
Daucus carota [17] = assay: Post-emergence herbicidal activity against Daucus carota (carrot) assessed as growth inhibition at 75 ai g/ha after 20 days by green house test; assay type: functional
Daucus carota [18] = assay: Post-emergence herbicidal activity against Daucus carota (carrot) assessed as growth inhibition at 150 ai g/ha after 20 days by green house test; assay type: functional
[19] = system: Brassica rapa subsp. oleifera; assay: Post-emergence herbicidal activity against Brassica rapa subsp. oleifera Si Yue Man assessed as growth inhibition at 450 ai g/ha after 20 days by green house test; assay type: functional
Daucus carota [20] = assay: Post-emergence herbicidal activity against Daucus carota (carrot) assessed as growth inhibition at 37.5 ai g/ha after 20 days by green house test; assay type: functional
Cardamine hirsuta [21] = assay: Post-emergence herbicidal activity against Cardamine hirsuta assessed as growth inhibition at 75 ai g/ha after 20 days by green house test; assay type: functional
Xanthium strumarium [22] = assay: Post-emergence herbicidal activity against Xanthium strumarium (cocklebur) assessed as growth inhibition at 225 ai g/ha after 20 days by green house test; assay type: functional
[23] = Toxicity against Zea mays Gao you 1 (maize) assessed as growth inhibition at 600 ai g/ha post-emergent application measured after 20 days by green house crop selectivity test; assay type: organism-based; conditions: Gao you 1, zea mays, in vivo, read-out: GI
Medicago sativa [24] = assay: Post-emergence herbicidal activity against Medicago sativa (alfalfa) assessed as growth inhibition at 75 ai g/ha after 20 days by green house test; assay type: functional
Amaranthus retroflexus [25] = assay: Post-emergence herbicidal activity against Amaranthus retroflexus assessed as growth inhibition at 18.75 ai g/ha after 20 days by green house test; assay type: functional
Eclipta prostrata [26] = assay: Post-emergence herbicidal activity against Eclipta prostrata assessed as growth inhibition at 37.5 ai g/ha after 20 days by green house test; assay type: functional
[27] = system: Brassica rapa subsp. oleifera; assay: Post-emergence herbicidal activity against Brassica rapa subsp. oleifera Si Yue Man assessed as growth inhibition at 75 ai g/ha after 20 days by green house test; assay type: functional

## COP(=O)(OC)C(C)OC(=O)COc1ccc(Cl)cc1Cl (stereo unspecified) [CLACYFOS]
Amaranthus retroflexus [1]
  growth inhibition (GI): 100%
Cardamine hirsuta [2]
  growth inhibition (GI): 95%
Portulaca oleracea
  growth inhibition (GI): 100%
Daucus carota [3]
  growth inhibition (GI): 100%
Amaranthus retroflexus [4]
  growth inhibition (GI): 100%
[5]
  inhibition at 480 h: 0%
[6]
  inhibition at 480 h: 0%
Xanthium strumarium [7]
  growth inhibition (GI): 72%
[8]
  inhibition at 480 h: 0%
Cardamine hirsuta [9]
  growth inhibition (GI): 75%
Medicago sativa [10]
  growth inhibition (GI): 100%
Echinochloa crus-galli
  growth inhibition (GI): 10%
Eclipta prostrata [11]
  growth inhibition (GI): 90%
Eclipta prostrata [12]
  growth inhibition (GI): 96%
Digitaria sanguinalis
  growth inhibition (GI): 22.5%
Xanthium strumarium [13]
  growth inhibition (GI): 90%
Oryza sativa
  inhibition: 21.3%
Xanthium strumarium [14]
  growth inhibition (GI): 100%
[15]
  growth inhibition (GI): 90%
Xanthium strumarium [16]
  growth inhibition (GI): 50%
Daucus carota [17]
  growth inhibition (GI): 90%
Daucus carota [18]
  growth inhibition (GI): 95%
[19]
  growth inhibition (GI): 100%
Daucus carota [20]
  growth inhibition (GI): 85%
Cardamine hirsuta [21]
  growth inhibition (GI): 88%
Xanthium strumarium [22]
  growth inhibition (GI): 95%
[23]
  inhibition at 480 h: 0%
Medicago sativa [24]
  growth inhibition (GI): 84%
Amaranthus retroflexus [25]
  growth inhibition (GI): 65%
Eclipta prostrata [26]
  growth inhibition (GI): 72%
[27]
  growth inhibition (GI): 92.5%
